From US6448027B1, “Method for specific measurement of acid phosphatase derived from osteoclasts” (FALCO biosystems Ltd., priority 1999, dated 2002)
Each block holds one compound with its values, some of them ahead of it.

Assays:
[1] = test system: Band 5b tartrate-resistant acid phosphatase; test: Effects of other materials on Band 5b TrACP activity in serum of healthy subjects; assay type: biochemical, human; settings: for Band 5b TrACP activity (%): control activity taken as 100%, serum of healthy subjects; for Effect of addition on Band 5b tartrate-resistant acid phosphatase activity: summary in words of Table 1, 1-10 mmol/L
Method: (1) Formulation of Compositions
(a) A Composition Comprising Tartaric Acid and Heparin (Reaction Buffer Solution 1)
(b) A composition comprising tartaric acid, heparin and fluoride (reaction buffer solution 2)
(2) Measurement (an Example Using Conventional Automatic Analyzer, Cobas® Fara, Baxter Ltd.)
(§1) To a cuvette is added 150 µl of reaction buffer solution 1 or reaction buffer solution 2 and, after 20 seconds, 15 µl of sample (serum) is added. The mixture is incubated at 37° C. for 5 minutes and then 60 µl of the substrate solution is added to start the enzyme reaction (the reaction mixture is 15 times as much as the amount of the sample (=(150 μ1+15 μ1+60 μ1)/15 μ1). The change in absorbance at 340 nm is monitored at 20 seconds intervals for 5 minutes. The amount of change in absorbance per one minute (the amount of change in absorbance in the enzyme reaction per unit time) is obtained from a linear part of the change in absorbance. The amount of change in absorbance per one minute in blank is obtained by the same procedure as the above except for adding physical saline or purified water instead of the sample.
The activity of osteoclast-derived acid phosphatase located at Band 5b is obtained by subtracting the activity value obtained by using the composition comprising tartaric acid, heparin and fluoride of the reaction buffer solution 2 from the activity value obtained by using the composition comprising tartaric acid and the inhibitor to acid phosphatases located at Band 5 other than Band 5b (in Examples, heparin is used) of the reaction buffer solution 1. […] The concentration, formulation, amount and the like of the above composition are adjusted according to a particular kind of automatic analyzer and measurement (kind and concentration of the substrate and the like) used.
(§2) Activity (U/L)=[(amount of change in absorbance per unit time in enzyme reaction−amount of change in absorbance in blank)×liquid amount on enzyme reaction×10^6]÷[sample amount×molar absorbance coefficient×cell optical path length]

[2] = test system: Band 5b tartrate-resistant acid phosphatase; settings: read-out: Km value for DCAPP of Band 5b tartrate-resistant acid phosphatase activity; substrate DCAPP
Method: as §1, with “sample. […]” for “sample.”
as §2

[3] = biological target: T1, Band 5a tartrate-resistant acid phosphatase (Homo sapiens, UniProt P13686); test: Effect of heparin on Band 5a tartrate-resistant acid phosphatase (CM-Sepharose peak III); assay type: biochemical
T1 construct: These fractions containing peak III and IV were used as Band 5a and Band 5b tartrate-resistant acid phosphatase, respectively; from tissue; host or cells: children's serum, CM-Sepharose cation-exchange fraction (peak III)
T1 sequence (P13686 22-325): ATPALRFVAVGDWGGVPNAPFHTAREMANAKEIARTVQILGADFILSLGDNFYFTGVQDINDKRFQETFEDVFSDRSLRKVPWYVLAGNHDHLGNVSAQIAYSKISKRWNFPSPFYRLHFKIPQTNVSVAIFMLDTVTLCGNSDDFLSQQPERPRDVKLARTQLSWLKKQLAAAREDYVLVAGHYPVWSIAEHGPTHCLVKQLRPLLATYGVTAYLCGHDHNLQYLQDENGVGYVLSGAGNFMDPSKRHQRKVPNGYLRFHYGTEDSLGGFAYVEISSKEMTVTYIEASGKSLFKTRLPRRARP
Method: (§3) The CM-Sepharose was packed into glass tubing (0.9 cm i.d.; length, 60 cm) and washed with acetate buffer (10 mmol/L, pH 5.0). The serum sample (children's serum, 5 ml) was adjusted to pH 5.0 by adding acetic acid and the coagulated proteins were removed by centrifugation at 20,000×g for 15 minutes. The supernatant fraction was passed through the column at 0.5 ml/minute. The enzyme, which was retained on the column, was then eluted with a liner gradient of sodium chloride: 0 to 1 mol/L in elution buffer (299 ml, acetate buffer, 10 mmol/L, pH 5.0). The fractionated serum was subjected to the method described in the above general method to measure tartrate-resistant fluoride-sensitive acid phosphatase activity (the value obtained by subtracting the value obtained with measurement solution 2 from the value obtained with measurement solution 1). Acid phosphatase activity was measured similarly by using measurement solution added polybrene which was antagonist of heparin instead of heparin.
These fractions containing peak III and IV were used as Band 5a and Band 5b tartrate-resistant acid phosphatase, respectively, in the following Examples. […]
Tartrate-resistant fluoride-sensitive acid phosphatase activity was measured using Band 5a and 5b tartrate-resistant acid phosphatases separated by CM-Sepharose to determine the effect of pH on activity. […]

bone extract = test: Effect of heparin on bone extract acid phosphatase activity; assay type: biochemical; settings: FIG. 3; bovine tibia extract
Method: Bone extract was prepared according to the method described in Nakanishi, M., Yoh, K., Uchida, K., Maruo, S., Matuoka, A., Clin. Chem., 1998, 44, 221-225. Bovine tibia after removal of soft tissue was cut into small cubes. The marrow and blood were removed, pulverized and homogenized in a solution containing Triton x-100, potassium chloride, phenylmethylsulfonyl fluoride, benzamidine and aminocaproic acid. The extract was collected by centrifugation at 10,000×g for 20 minutes at 4° C. and stored at −80° C. until use.

serum = test: Effect of heparin on serum acid phosphatase activity; assay type: biochemical, human; settings: FIG. 3
Method: Blood samples collected from 516 healthy subjects aged 5 to 79 years (210 males and 306 females) were coagulated at room temperature for 2 to 4 hours and centrifuged at 1,000×g at room temperature for 10 minutes. Serum thus separated was transferred into 1.5 ml tubes and stored at −80° C. until use.

[4] = test system: tartrate-resistant fluoride-sensitive acid phosphatases other than Band 5b; test: TrFsACP activity of CM-Sepharose fractions of serum with heparin or polybrene in the reaction buffer; assay type: biochemical, human; settings: CM-Sepharose fractions of children's serum; FIG. 1
Method: Using CM-Sepharose, Band 5a and Band 5b tartrate-resistant acid phosphatase were separated and collected.
as §3
When polybrene was added to the reaction buffer, at least four peaks of tartrate-resistant fluoride-sensitive acid phosphatase activity were observed (FIG. 1, I, II, III and IV). But only one peak (IV) was observed when heparin was added to the reaction buffer. […]

[5] = compound 1 mmol/L in reaction buffer solution
[6] = compound 5 mmol/L in reaction buffer solution
[7] = compound 10 mmol/L in reaction buffer solution

Compound: O=C1O[C@H]([C@@H](O)CO)C(O)=C1O [Ascorbic acid]
Band 5b TrACP activity (%) [1, 5]: 97%
Band 5b TrACP activity (%) [1, 6]: 103%
Band 5b TrACP activity (%) [1, 7]: 103%
Effect of addition on Band 5b tartrate-resistant acid phosphatase activity [1]: no effect

Compound: CC(=O)c1cc(Cl)c(OP(=O)(O)O)c(Cl)c1 [DCAPP, 2,6-dichloro-4-acetylphenyl phosphate]
Km [2]: 4.7 mM

The next lines start with results.

Band 5b TrACP activity (%) [1, 5]: 93%
Band 5b TrACP activity (%) [1, 6]: 69%
Band 5b TrACP activity (%) [1, 7]: 57%
Effect of addition on Band 5b tartrate-resistant acid phosphatase activity [1]: inhibited enzyme activity
Compound: O[C@H](CS)[C@H](O)CS (racemic) [Dithiothreitol]

Band 5b TrACP activity (%) [1, 5]: 95%
Band 5b TrACP activity (%) [1, 6]: 96%
Band 5b TrACP activity (%) [1, 7]: 93%
Effect of addition on Band 5b tartrate-resistant acid phosphatase activity [1]: no effect
Compound: O=C(O)CN(CCN(CC(=O)O)CC(=O)O)CC(=O)O [EDTA]

Effect of heparin on Band 5a tartrate-resistant acid phosphatase ([3]; FIG. 3): significantly inhibited
Band 5a tartrate-resistant acid phosphatase activity after addition of heparin ([3]; pH 6.6, 0.05% heparin in reaction mixture, FIG. 4): zero level
Effect of heparin on bone extract (bone extract): slightly inhibited
Effect of heparin on serum (serum): slightly inhibited
Compound: heparin
Effect of heparin on tartrate-resistant fluoride-sensitive acid phosphatases other than Band 5b [4]: inhibits
